Peptide text beside a SMILES is read from it. * marks the point of attachment. Cbz = O=C(OCc1ccccc1)*; Acryloyl = C=CC(=O)*
Assays:
[1] = molecular target: T1, Protein-glutamine gamma-glutamyltransferase (Homo sapiens) (UniProt P21980); test: (§1) Irreversible inhibition of human TG2 using AL5 as substrate by double reciprocal plot method
T1 sequence (whole entry): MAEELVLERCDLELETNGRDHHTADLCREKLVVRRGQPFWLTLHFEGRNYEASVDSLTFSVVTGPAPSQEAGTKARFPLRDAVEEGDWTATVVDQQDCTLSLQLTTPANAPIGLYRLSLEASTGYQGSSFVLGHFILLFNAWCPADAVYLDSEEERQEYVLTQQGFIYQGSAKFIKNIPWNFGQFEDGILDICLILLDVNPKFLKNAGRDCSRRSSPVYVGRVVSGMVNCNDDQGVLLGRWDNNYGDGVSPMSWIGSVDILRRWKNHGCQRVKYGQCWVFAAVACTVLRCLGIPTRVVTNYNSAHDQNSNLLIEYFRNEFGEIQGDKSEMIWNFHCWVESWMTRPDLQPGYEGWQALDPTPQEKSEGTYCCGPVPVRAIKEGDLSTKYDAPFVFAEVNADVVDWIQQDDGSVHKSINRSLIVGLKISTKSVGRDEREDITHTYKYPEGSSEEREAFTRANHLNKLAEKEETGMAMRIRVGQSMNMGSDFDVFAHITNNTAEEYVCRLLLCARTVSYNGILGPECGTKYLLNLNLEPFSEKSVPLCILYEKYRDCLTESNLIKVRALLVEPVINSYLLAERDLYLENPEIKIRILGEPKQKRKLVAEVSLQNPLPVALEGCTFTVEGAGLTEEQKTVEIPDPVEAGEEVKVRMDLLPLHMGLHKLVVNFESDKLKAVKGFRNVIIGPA

[2] = molecular target: T2, Protein-glutamine gamma-glutamyltransferase (Homo sapiens, UniProt P21980); test: as §1
T2 sequence (P21980 whole entry): T1 sequence (whole entry)

[3] = molecular target: T1, Protein-glutamine gamma-glutamyltransferase (Homo sapiens); test: Ratio of kinact to Ki for human TG2 by double reciprocal plot method
[4] = molecular target: T1, Protein-glutamine gamma-glutamyltransferase (Homo sapiens); test: (§2) Irreversible inhibition of human TG2 using AL5 as substrate by colorimetric assay
[5] = molecular target: T2, Protein-glutamine gamma-glutamyltransferase; test: as §2
[6] = molecular target: T1, Protein-glutamine gamma-glutamyltransferase (Homo sapiens); test: Ratio of kinact to Ki for human TG2 by colorimetric assay
[7] = Inhibition of human ECS cells invasion by using Engelbreth-Holm-Swarm mouse tumor matrigel measured after 18 hrs by DAPI staining-based flourescence microscopy; type: functional, cell-based
[8] = Inhibition of guinea pig liver TG2 using Z-Gln-Gly/DMPDA as substrate preincubated for 3 mins followed by protein addition; design: species or system Cavia porcellus
Cavia porcellus = species: Cavia porcellus; test: Ratio of Kinact to Ki for guinea pig liver TG2

Structure (SMILES)	Kinact [4] [min⁻¹]	Ki [5] [µM]	Ratio [6] [×10³ /M/min]	also measured
C=CC(=O)NCCCC[C@H](NC(=O)OCc1ccccc1)C(=O)NCCCNS(=O)(=O)c1cccc2c(N(C)C)cccc12	–	–	–	Kinact [1]: 0.85 min⁻¹; Ki [2]: 30.5 µM; Ratio [3]: 27.6 ×10³ /M/min
C=CC(=O)NCCCC[C@H](NC(=O)OCc1ccccc1)C(=O)N1CCN(C(=O)c2cc3ccc(O)cc3oc2=O)CC1	0.69	11.2	62.1	–
C=CC(=O)NCCCC[C@H](NC(=O)OCc1ccccc1)C(=O)N1CCN(C(=O)Cc2ccccc2)CC1	2.26	20	113	–
C=CC(=O)NCCCC[C@H](NC(=O)OCc1ccccc1)C(=O)NCCNS(=O)(=O)c1cccc2c(N(C)C)cccc12	–	–	–	Kinact [1]: 1.45 min⁻¹; Ki [2]: 23.5 µM; Ratio [3]: 61.5 ×10³ /M/min
C=CC(=O)NCCCC[C@H](NC(=O)OCc1ccccc1)C(=O)N1CCN(S(=O)(=O)Cc2ccccc2)CC1	0.47	14.7	34.9	–
C=CC(=O)NCCCC[C@H](NC(=O)OCc1ccccc1)C(=O)N1CCN(S(=O)(=O)C(C)C)CC1	0.5	9.1	54.7	–
C=CC(=O)NCCCC[C@H](NC(=O)OCc1ccccc1)C(=O)N1CCN(S(=O)(=O)c2cccs2)CC1	1.48	40.1	36.8	–
C=CC(=O)NCCC[C@H](NC(=O)OCc1ccccc1)C(=O)N1CCN(S(=O)(=O)c2cccc3c(N(C)C)cccc23)CC1	–	–	–	Kinact [1]: 1.18 min⁻¹; Ki [2]: 47.7 µM; Ratio [3]: 24.7 ×10³ /M/min
C=CC(=O)NCCCC[C@H](NC(=O)OCc1ccccc1)C(=O)O	–	60.3	–	Ki [8]: 0.52 µM
C=CC(=O)NCCCC[C@H](NC(=O)OCc1ccccc1)C(=O)N1CCN(S(=O)(=O)C2CCCCC2)CC1	0.69	11	62.9	–
C=CC(=O)NCCCC[C@H](NC(=O)OCc1ccccc1)C(N)=O	–	–	–	Kinact [1]: 1.08 min⁻¹; Ki [2]: 35.1 µM; Ratio [3]: 30.7 ×10³ /M/min
C=CC(=O)NCCCC[C@H](NC(=O)OCc1ccccc1)C(=O)N1CCN(C(C)=O)CC1	2.06	52.1	36.9	–
C=CC(=O)NCCCC[C@H](NC(=O)OCc1ccccc1)C(=O)N1CCN(C(=O)c2cccc3ccccc23)CC1	–	8.9	–	–
C=CC(=O)NCCCC[C@H](NC(=O)OCc1ccccc1)C(=O)N1CCN(S(=O)(=O)c2ccccc2)CC1	0.47	8.8	53.3	–
C=CC(=O)NCCCC[C@H](NC(=O)OCc1ccccc1)C(=O)N1CCN(S(C)(=O)=O)CC1	0.5	6.4	78.4	–
C=CC(=O)NCCCC[C@H](NC(=O)OCc1ccccc1)C(=O)NCCCCNS(=O)(=O)c1cccc2c(N(C)C)cccc12	–	–	–	Kinact [1]: 2.19 min⁻¹; Ki [2]: 27.1 µM; Ratio [3]: 80.8 ×10³ /M/min
C=CC(=O)NCCCC[C@H](NC(=O)OCc1ccccc1)C(=O)N1CCN(C(=O)c2ccccc2)CC1	4.77	36.6	130	–
C=CC(=O)NCCCC[C@H](NC(=O)OCc1ccccc1)C(=O)N1CCN(S(=O)(=O)c2ccc3ccccc3c2)CC1	0.38	6.7	57.3	–
C=CC(=O)NCCCC[C@H](NC(=O)OCc1ccccc1)C(=O)N1CCN(C(=O)c2cccnc2)CC1	1.44	23.4	61.4	–

Second part, led by results:

Kinact [4] [min⁻¹]	Ki [5] [µM]	Ratio [6] [×10³ /M/min]	Structure (SMILES)	also measured
1.42	36	39.4	C=CC(=O)NCCCC[C@H](NC(=O)OCc1ccccc1)C(=O)N1CCN(S(=O)(=O)CC)CC1	–
–	12.9	–	C=CC(=O)NCCCC[C@H](NC(=O)OCc1ccccc1)C(=O)N1CCN(S(=O)(=O)c2cccc3c(N(C)C)cccc23)CC1	EC50 [7]: 3.9 µM
1.43	38.7	37	C=CC(=O)NCCCC[C@H](NC(=O)OCc1ccccc1)C(=O)N1CCN(C(=O)c2ccncc2)CC1	–
2.93	32.1	91.3	C=CC(=O)NCCCC[C@H](NC(=O)OCc1ccccc1)C(=O)N1CCN(C(=O)c2ccccn2)CC1	–
1.47	28.9	51	C=CC(=O)NCCCC[C@H](NC(=O)OCc1ccccc1)C(=O)N1CCOCC1	–
0.39	10.4	37.2	C=CC(=O)NCCCC[C@H](NC(=O)OCc1ccccc1)C(=O)N1CCN(S(=O)(=O)c2cccc3ccccc23)CC1	–
1.21	13.4	90.3	C=CC(=O)NCCCC[C@H](NC(=O)OCc1ccccc1)C(=O)N1CCN(C(=O)c2ccc3ccccc3c2)CC1	–
1.26	48.1	26.1	C=CC(=O)NCCCC[C@H](NC(=O)OCc1ccccc1)C(=O)NCC(=O)O (Cbz-Lys(Acryloyl)-Gly-OH)	Ki [8]: 0.15 µM; Ratio (Cavia porcellus): 3 ×10⁶ /M/min
1.45	40	36.2	C=CC(=O)NCCCC[C@H](NC(=O)OCc1ccccc1)C(=O)NCC(=O)OC (Cbz-Lys(Acryloyl)-Gly-OMe)	–
0.97	17.4	56	C=CC(=O)NCCCC[C@H](NC(=O)OCc1ccccc1)C(=O)N1CCN(c2ccccc2Cl)CC1	–
